Measured values from paper PMC12362796, “Bilirubin Targeting WNK1 to Alleviate NLRP3‐Mediated Neuroinflammation” (Advanced Science, 2025).

Tests used:
TRPM2 channels = tested on: TRPM2 channels; set-up: method as in PMID 36921602; conditions: structural derivative of bilirubin; previous research; cited from earlier work
full-length hWNK1 = molecular target: T1, full-length hWNK1 (Homo sapiens, UniProt Q9H4A3); assay: MicroScale Thermophoresis (MST), EGFP-tagged full-length WNK1 in HEK293T cell lysates; assay type: binding; conditions: 15 min incubation, lysates of EGFP-WNK1 expressing HEK293T cells, control ligand
T1 construct: We overexpressed full‐length WNK1 fused with Green Fluorescent Protein (GFP); expressed in transfected cells; host or cells: HEK293T
T1 sequence (Q9H4A3 whole entry, the tested form may be a part): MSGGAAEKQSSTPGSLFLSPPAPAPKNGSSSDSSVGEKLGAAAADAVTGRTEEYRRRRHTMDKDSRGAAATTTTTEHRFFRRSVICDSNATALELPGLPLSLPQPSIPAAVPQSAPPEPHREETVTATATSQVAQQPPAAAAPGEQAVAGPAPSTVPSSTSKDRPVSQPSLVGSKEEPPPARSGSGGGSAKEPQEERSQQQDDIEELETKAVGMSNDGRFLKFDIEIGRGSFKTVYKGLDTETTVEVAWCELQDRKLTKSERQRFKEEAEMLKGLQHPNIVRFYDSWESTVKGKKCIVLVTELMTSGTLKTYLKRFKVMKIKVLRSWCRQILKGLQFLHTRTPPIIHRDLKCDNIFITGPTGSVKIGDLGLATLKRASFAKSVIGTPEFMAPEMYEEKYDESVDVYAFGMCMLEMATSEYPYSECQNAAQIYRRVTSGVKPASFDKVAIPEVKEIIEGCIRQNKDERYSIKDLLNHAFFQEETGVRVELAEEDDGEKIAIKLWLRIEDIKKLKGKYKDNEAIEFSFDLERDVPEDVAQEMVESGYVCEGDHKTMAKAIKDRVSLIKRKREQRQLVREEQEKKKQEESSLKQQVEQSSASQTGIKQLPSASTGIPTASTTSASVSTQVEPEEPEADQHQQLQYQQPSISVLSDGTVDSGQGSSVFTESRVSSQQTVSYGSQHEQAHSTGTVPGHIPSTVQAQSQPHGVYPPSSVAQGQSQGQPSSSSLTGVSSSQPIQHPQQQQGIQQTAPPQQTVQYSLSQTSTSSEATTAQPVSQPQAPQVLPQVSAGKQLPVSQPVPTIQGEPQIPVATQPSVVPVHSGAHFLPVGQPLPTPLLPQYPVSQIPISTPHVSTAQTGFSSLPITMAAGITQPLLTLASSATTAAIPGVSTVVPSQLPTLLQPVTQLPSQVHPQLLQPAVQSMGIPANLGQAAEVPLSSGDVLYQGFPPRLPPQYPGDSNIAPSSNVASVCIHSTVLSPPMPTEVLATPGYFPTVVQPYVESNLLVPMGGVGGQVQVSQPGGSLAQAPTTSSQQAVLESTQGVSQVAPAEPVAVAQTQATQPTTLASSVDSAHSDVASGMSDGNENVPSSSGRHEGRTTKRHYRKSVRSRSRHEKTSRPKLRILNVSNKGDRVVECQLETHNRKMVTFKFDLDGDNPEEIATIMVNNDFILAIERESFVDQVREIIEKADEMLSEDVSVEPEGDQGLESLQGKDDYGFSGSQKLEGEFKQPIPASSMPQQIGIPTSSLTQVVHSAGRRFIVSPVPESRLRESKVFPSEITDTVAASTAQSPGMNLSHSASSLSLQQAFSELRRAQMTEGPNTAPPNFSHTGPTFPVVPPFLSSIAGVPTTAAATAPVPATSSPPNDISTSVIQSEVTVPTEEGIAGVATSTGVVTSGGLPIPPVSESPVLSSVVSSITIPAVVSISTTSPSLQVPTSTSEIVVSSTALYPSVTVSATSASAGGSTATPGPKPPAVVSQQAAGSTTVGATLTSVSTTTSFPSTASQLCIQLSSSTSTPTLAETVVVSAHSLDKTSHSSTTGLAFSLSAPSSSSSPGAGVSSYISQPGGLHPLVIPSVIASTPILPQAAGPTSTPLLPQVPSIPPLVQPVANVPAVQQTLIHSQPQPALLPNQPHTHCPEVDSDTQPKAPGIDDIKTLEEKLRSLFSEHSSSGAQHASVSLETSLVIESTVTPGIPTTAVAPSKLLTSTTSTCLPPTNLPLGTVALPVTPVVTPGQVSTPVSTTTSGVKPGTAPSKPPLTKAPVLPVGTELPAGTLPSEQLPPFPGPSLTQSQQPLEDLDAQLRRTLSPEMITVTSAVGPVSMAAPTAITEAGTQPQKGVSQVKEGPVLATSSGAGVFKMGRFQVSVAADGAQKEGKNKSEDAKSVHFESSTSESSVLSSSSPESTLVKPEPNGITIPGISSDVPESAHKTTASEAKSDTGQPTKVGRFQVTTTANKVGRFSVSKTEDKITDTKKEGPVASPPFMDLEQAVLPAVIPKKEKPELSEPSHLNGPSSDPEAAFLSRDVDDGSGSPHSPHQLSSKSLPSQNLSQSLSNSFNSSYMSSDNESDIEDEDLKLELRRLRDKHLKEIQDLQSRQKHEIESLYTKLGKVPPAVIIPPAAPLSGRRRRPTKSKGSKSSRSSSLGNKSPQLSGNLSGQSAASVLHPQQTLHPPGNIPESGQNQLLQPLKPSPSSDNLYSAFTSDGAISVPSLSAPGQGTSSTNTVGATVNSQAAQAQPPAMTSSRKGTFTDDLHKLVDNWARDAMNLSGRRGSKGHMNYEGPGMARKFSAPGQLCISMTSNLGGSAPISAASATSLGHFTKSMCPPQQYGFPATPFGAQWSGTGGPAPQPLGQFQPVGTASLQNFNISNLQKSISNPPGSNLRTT
Protocol: To validate the direct binding of bilirubin to WNK1, we performed a Microscale Thermophoresis (MST) analysis, which assesses the binding capacity of a compound by measuring the movement of proteins over a microscopic temperature gradient.^[ [26], [27] ^] We overexpressed full‐length WNK1 fused with Green Fluorescent Protein (GFP) in HEK‐293 cells, incubated the lysates with bilirubin at varying dilutions, and subjected them to precise MST measurements in capillaries. […] Furthermore, biliverdin, a structurally similar intermediate product generated before bilirubin formation, was used as a control.
All WNK1 clones were derived from the original untagged hWNK1 cDNA (NM_018979), which was modified and subcloned into the pcDNA3.1, referred to as “full‐length WNK1” throughout this study. Truncated constructs, including 1–190aa, 191–491aa, 1–491aa, and 491–2382aa fragments, were generated by PCR using the full‐length template and subsequently ligated into linearized pcDNA3.1 vectors. WNK2 was obtained from Addgene Plasmid #24569, and WNK3 was obtained from Addgene Plasmid #81723. Both were subjected to base modifications and cloned into pcDNA3.1. The WNK4 clone was derived from hWNK4 cDNA (NM_032387.5), modified, and subcloned into the pCMV3‐C‐GFPSpark vector.
In HEK293T cells, proteins tagged with green fluorescent protein (GFP) were expressed. […]

[1] = tested on: primary cultured hippocampal neurons; assay: MQAE intracellular chloride measurement in primary cultured hippocampal neurons; assay type: cell-based, mouse; conditions: co-treatment with bilirubin, DIV8 primary hippocampal neurons, MQAE
Description: Therefore, we hypothesized that bilirubin activation of WNK1 kinase activity might affect intracellular chloride levels. […] This was detected using the sensitive molecular probe N‐(Ethoxycarbonylmethyl)‐6‐Methoxyquinolinium Bromide (MQAE), as indicated by a reduction in MQAE fluorescence intensity (Figure 4C,E).^[ [32] ^]
To ascertain whether bilirubin regulates chloride ions through WNK1, we generated Wnk1 gene knockout primary cultured neurons. We achieved neuron‐specific deletion of Wnk1 in hippocampal neurons by transducing primary neurons isolated from Wnk1^flox/flox embryonic mice with a lentivirus expressing hSyn‐Cre‐EGFP.^[ [33], [34] ^] […] Intracellular chloride concentration is crucial for modulating inhibitory synaptic transmission and, consequently, neuronal excitability.
Since bilirubin‐induced activation of WNK1 kinase activity increases [Cl⁻]i in neurons, we sought to elucidate the downstream effector proteins of WNK1 that are involved in this process. Neuronal [Cl⁻]i is primarily regulated by the Cl⁻‐K⁺ symporter KCC2, with additional modulation by factors such as the Na⁺‐K⁺‐Cl⁻ co‐transporter NKCC1, GABAA receptors, and glycine receptors (GlyR), all of which contribute to [Cl⁻]i homeostasis.^[ [31] ^] To investigate the mechanism underlying bilirubin‐induced changes in [Cl⁻]i, we selectively targeted these proteins using pharmacological inhibitors (VU0463271 for KCC2, bumetanide for NKCC1, bicuculline for GABAA receptors, and strychnine for GlyR) and activated KCC2 using CLP257.^[ [35], [36] ^] […] The bilirubin‐induced effect on [Cl⁻]i was not observed in primary astrocytes (Figure S15A,B, Supporting Information) or the HEK 293T cell line (Figure S15C, Supporting Information), both of which lacked KCC2 expression (Figure S16A,B, Supporting Information), further confirming that the effects of bilirubin and WNK1 on [Cl⁻]i elevation are dependent on KCC2.
Intracellular chloride concentration ([Cl⁻]i) was measured using the MQAE fluorescent dye (Life Technologies) following established protocols (Zhang, Lee et al. 2015). […]

| Kd (full-length hWNK1) | Structure (SMILES) | activation of TRPM2 channels (TRPM2 channels) | effect on bilirubin-induced elevation of [Cl−]i [1] |
| --- | --- | --- | --- |
| 29.7 µM | C=CC1=C(C)/C(=C/C2=NC(=C\c3[nH]c(/C=C4\NC(=O)C(C)=C4C=C)c(C)c3CCC(=O)O)/C(CCC(=O)O)=C2C)NC1=O [Biliverdin, reference compound] | can activate | – |
| – | O=C1N=C(N2CCCCN2)S/C1=C\c1ccc(F)cc1O [CLP257, reference compound] | – | counteracted the effect of bilirubin |
